Assay results as given in patent US11208387B2, “Macrocyclic broad spectrum antibiotics” (Genentech, Inc., priority 2019, dated 2021).
In brackets after ≈: the same amount, converted by molar mass. Read-outs that look alike come from different tables or passages of the source.

Tests used:
Test in all cases: Serum MIC, broth micro-dilution
Format in all cases: cell-based
[1] = system: Acinetobacter baumannii ATCC 17978; details: Acinetobacter baumannii, ATCC17978
Experimental: (§1) In vitro antimicrobial activity of each compound was determined by measuring minimal inhibitor concentrations (MICs) using the broth micro-dilution technique as approved by the Clinical and Laboratory Standards Institute (CLSI) (Methods for Dilution Antimicrobial Susceptibility Tests for Bacteria that Grow Aerobically; Approved Standard—Eighth Edition. CLSI document M07-A8. Wayne, Pa.: Clinical and Laboratory Standards; 2009). Antibacterial activity was measure against Escherichia coli strain ATCC 25922 (E. coli), Klebsiella pneumoniae ATCC 700603 (K. pneumoniae), Acinetobacter baumannii ATCC 17978 (A. baumannii), and Pseudomonas aeruginosa PA01 (P. aeruginosa), each of which is representative of a clinically relevant Gram-negative species. Cells were inoculated onto plates of Mueller Hinton Agar and grown at 37° C. for 16-18 hours. Inocula suspensions were prepared by scraping cells into 1 mL of testing media (Mueller Hinton II cation adjusted Broth) and diluting to a final OD 600 nm of 0.01.
(§2) Test compounds were prepared in DMSO at a concentration of […]. The compounds were tested under several different dilution formats. In protocol 1, the compound stocks were diluted into testing media at a concentration of 64 μg/ml and serial 2-fold dilutions were made in the same media, in 96-well U bottom microtiter dishes, for a total of 10 compound concentrations. In protocol 2, the compound stocks were diluted into testing media at a concentration of 4 μg/mL and serial 2-fold dilutions were made in the same media, in 96-well U bottom microtiter dishes, for a total of 10 compound concentrations. In protocol 3, compound stocks were diluted into testing media at a concentration of 0.5 μg/mL, with serial 2-fold dilutions conducted as described above. In protocol 4, compound stocks were diluted into testing media at a concentration of 0.13 μg/mL, with serial 2-fold dilutions conducted as described above. Inocula suspensions were added to the 2-fold serial dilutions of test compounds to a final density of OD 600 nm of 0.0005 and incubated at 35° C. for 22 hours. […] To assess antimicrobial activity in the presence of plasma proteins, MICs were also determined in growth media supplemented with 50% serum. Bacterial inocula and test compound dilution plates were prepared using the same protocol as described above for the standard MICs assay, with the exception that a mixture of 50% v/v Mueller Hinton II cation adjusted Broth and 50% v/v mouse sterile filtered serum (Equitech-Bio) was used in place of 100% Mueller Hinton II cation adjusted Broth. The results are listed in Table 3 (MIC, IC50 values micromolar).

[2] = system: Escherichia coli strain ATCC 25922; details: Escherichia coli, ATCC25922, read-out: E. coli 25922 Serum MIC
Experimental: as §1, §2

[3] = system: Klebsiella pneumoniae ATCC 700603; details: Klebsiella pneumoniae, ATCC700603
Experimental: as §1, §2

[4] = system: Pseudomonas aeruginosa PA01; details: Pseudomonas aeruginosa, PA01, read-out: P. aeruginosa 01 Serum MIC
Experimental: as §1, §2

[5] = 50% v/v mouse serum in Mueller Hinton II cation adjusted Broth, 35° C., 22 hours, Table 4, read-out: A. baumanii 17978 Serum MIC
[6] = 50% v/v mouse serum in Mueller Hinton II cation adjusted Broth, 35° C., 22 hours, Table 5, read-out: Acinetobacter baumanii 17978 Serum MIC
[7] = 50% v/v mouse serum in Mueller Hinton II cation adjusted Broth, 35° C., 22 hours, Table 4
[8] = 50% v/v mouse serum in Mueller Hinton II cation adjusted Broth, 35° C., 22 hours, Table 4, read-out: K pneumoniae 700603 Serum MIC
[9] = 50% v/v mouse serum, compounds of Table 1, Table 7

SMILES	MIC [1, 5]	MIC [1, 6]	MIC [2, 7]	MIC [3, 8]	MIC [4, 7]	MIC ([1]; 50% v/v mouse serum, compounds of Table 1, Table 7, read-out: A. baumanii 17978 Serum MIC)	MIC [2, 9]	MIC ([3]; 50% v/v mouse serum, compounds of Table 1, Table 7, read-out: K. pneumoniae 700603 Serum MIC)	MIC [4, 9]
Cc1nc(-c2ccc(OCCC(C)(C)C)cc2)nc(N)c1C(=O)N[C@@H](CNS(N)(=O)=O)C(=O)N(C)[C@@H]1C(=O)N[C@@H](C)C(=O)N[C@H](C(=O)O)Cc2ccc(OC[C@H](O)CN)c(c2)-c2cc1cc(OC[C@H](O)CN)c2O [Example 3, (8S,11S,14S)-18-hydroxy-11-methyl-14-[methyl-[(2S)-2-[[4-amino-2-[4-(3,3-dimethylbutoxy)-phenyl]-6-methyl-pyrimidine-5-carbonyl]amino]-3-(sulfamoylamino)-propanoyl]amino]-10,13-dioxo-3,17-bis[(2R)-3-amino-2-hydroxy-propoxy]-9,12-diazatricyclo-[13.3.1.12,6]icosa-1(18),2(20),3,5,15(19), 16-hexaene-8-carboxylic acid]	12 µM (≈ 12.6 µg/mL)	12 µM (≈ 12.6 µg/mL)	0.5 µM (≈ 0.526 µg/mL)	0.5 µM (≈ 0.526 µg/mL)	4 µM (≈ 4.21 µg/mL)	–	–	–	–
C[C@@H]1NC(=O)[C@@H](N(C)C(=O)[C@H](CNS(N)(=O)=O)NC(=O)c2c(Cl)cc(-c3ccc(C(C)(C)C)cc3)nc2N)c2cc(OC[C@H](O)CN)c(O)c(c2)-c2cc(ccc2OC[C@H](O)CN)C[C@@H](C(=O)O)NC1=O [Example 40, (8S,11S,14S)-14-[[(2S)-2-[[2-amino-6-(4-tert-butylphenyl)-4-chloro-pyridine-3-carbonyl]amino]-3-(sulfamoylamino)-propanoyl]-methyl-amino]-3,17-bis[(2R)-3-amino-2-hydroxy-propoxy]-18-hydroxy-11-methyl-10,13-dioxo-9,12-diazatri-cyclo[13.3.1.12,6]icosa-1(18),2(20),3,5,15(19), 16-hexaene-8-carboxylic acid]	16 µM (≈ 16.4 µg/mL)	16 µM (≈ 16.4 µg/mL)	0.75 µM (≈ 0.771 µg/mL)	0.5 µM (≈ 0.514 µg/mL)	8 µM (≈ 8.22 µg/mL)	–	–	–	–
Cc1nc(-c2ccc(C(C)(C)C)c(F)c2O)nc(N)c1C(=O)N[C@@H](CNS(N)(=O)=O)C(=O)N(C)[C@@H]1C(=O)N[C@@H](C)C(=O)N[C@H](C(=O)O)Cc2ccc(OC[C@H](O)CN)c(c2)-c2cc1cc(OC[C@H](O)CN)c2O [Example 67, (8S,11S,14S)-18-hydroxy-11-methyl-14-[methyl-[(2S)-2-[[4-amino-2-(4-tert-butyl-3-fluoro-2-hydroxy-phenyl)-6-methyl-pyrimidine-5-carbonyl]amino]-3-(sulfamoylamino)-propanoyl]amino]-10,13-dioxo-3,17-bis[(2R)-3-amino-2-hydroxy-propoxy]-9,12-diazatricyclo-[13.3.1.12,6]icosa-1(18),2(20),3,5,15(19), 16-hexaene-8-carboxylic acid]	16 µM (≈ 16.7 µg/mL)	16 µM (≈ 16.7 µg/mL)	0.5 µM (≈ 0.521 µg/mL)	1 µM (≈ 1.04 µg/mL)	4 µM (≈ 4.17 µg/mL)	–	–	–	–
Cc1nc(-c2ccc(C(C)(C)C)cc2)nc(C)c1C(=O)N[C@@H](CCN)C(=O)N(C)[C@@H]1C(=O)N[C@@H](C)C(=O)N[C@H](C(=O)O)Cc2ccc(OCCN)c(c2)-c2cc1cc1[nH]c(=O)oc21 (racemic) [Example 649]	–	–	–	–	–	64 µM (≈ 55.3 µg/mL)	1 µM (≈ 0.864 µg/mL)	2 µM (≈ 1.73 µg/mL)	64 µM (≈ 55.3 µg/mL)
Cc1nc(-c2ccc(C(C)(C)C)cc2)ncc1C(=O)N[C@@H](CN)C(=O)N(C)[C@@H]1C(=O)N[C@@H](C)C(=O)N[C@H](C(=O)O)Cc2ccc(OC[C@H](O)CN)c(c2)-c2cc1cc(OC[C@H](O)CN)c2O [Example 31, (8S,11S,14S)-18-hydroxy-11-methyl-14-[methyl-[(2S)-3-amino-2-[[2-(4-tert-butylphenyl)-4-methyl-pyrimidine-5-carbonyl]amino]-propanoyl]amino]-10,13-dioxo-3,17-bis[(2R)-3-amino-2-hydroxy-propoxy]-9,12-diazatricyclo-[13.3.1.12,6]icosa-1(18),2(20),3,5,15(19), 16-hexaene-8-carboxylic acid]	32 µM (≈ 29.2 µg/mL)	32 µM (≈ 29.2 µg/mL)	1 µM (≈ 0.914 µg/mL)	0.75 µM (≈ 0.686 µg/mL)	48 µM (≈ 43.9 µg/mL)	–	–	–	–
